Measurements taken from patent publication US20250171457A1, “NITROGEN-CONTAINING HETEROCYCLIC COMPOUND HAVING NRF2 ACTIVATION EFFECT” (CHUGAI SEIYAKU KABUSHIKI KAISHA, priority 2022, published 2025).

Tested on: Nrf2 transcriptional activity (pARE-Luc reporter) in HepG2 cells
Assay: In vitro Nrf2 transcriptional activity measurement by ARE-dependent reporter assay in HepG2 cell
Format: cell-based, human
Conditions: Homo sapiens; HepG2 cells transfected with pARE-Luc, 4 hours at 37° C.; luciferase activity of Example 1-54 or Example 17-23 at 3.75 μM defined as 100%
In short: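 Luminescence readout (Bright-Glo) after 4 h, 37° C compound exposure of HepG2 cells carrying the ARE-luciferase vector pGL4.37. Each well converted to % response versus reference compound at 3.75 μM, and EC50 derived from dose-response curves.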

Question: `CC(C)(O)CCOc1cc(Cl)c(C(=O)N2COc3c(cccc3-c3ccc(C(=O)O)c(N4CCOCC4)c3)C2)c(Cl)c1` [Compound 4-45, 4-[3-[2,6-Dichloro-4-(3-hydroxy-3-methylbutoxy)benzoyl]-2,4-dihydro-1,3-benzoxazin-8-yl]-2-morpholin-4-ylbenzoic acid] was tested. Which EC50 did it give?
Answer: 10 nM

Question: With `Cc1cnn(C2CN(c3cc(Cl)c(C(=O)N4COc5c(cccc5-c5cc(N6C7CCC6COC7)c(C(=O)O)cc5F)C4)c(Cl)c3)C2)c1` [Compound 20-13, 4-[3-[2,6-Dichloro-4-[3-(4-methylpyrazol-1-yl)azetidin-1-yl]benzoyl]-2,4-dihydro-1,3-benzoxazin-8-yl]-5-fluoro-2-(3-oxa-8-azabicyclo[3.2.1]octan-8-yl)benzoic acid] as the molecule, how does the EC50 read?
Answer: 5.5 nM

Question: Which EC50 does the source give for `COCC1CN(c2cc(Cl)c(C(=O)N3COc4c(cccc4-c4cc(N5C6CCC5COC6)c(C(=O)O)cc4F)C3)c(Cl)c2)C1` [Compound 4-4, 4-[3-[2,6-Dichloro-4-[3-(methoxymethyl)azetidin-1-yl]benzoyl]-2,4-dihydro-1,3-benzoxazin-8-yl]-5-fluoro-2-(3-oxa-8-azabicyclo[3.2.1]octan-8-yl)benzoic acid] here?
Answer: 3.2 nM

Question: With `COCCN1C[C@@H]2C[C@H]1CN2c1cc(Cl)c(C(=O)N2COc3c(cccc3-c3cc(N4C5CCC4COC5)c(C(=O)O)cc3F)C2)c(Cl)c1` [Compound 20-7, 4-[3-[2,6-Dichloro-4-[(1S,4S)-5-(2-methoxyethyl)-2,5-diazabicyclo[2.2.1]heptan-2-yl]benzoyl]-2,4-dihydro-1,3-benzoxazin-8-yl]-5-fluoro-2-(3-oxa-8-azabicyclo[3.2.1]octan-8-yl)benzoic acid] as the molecule, how does the EC50 read?
Answer: 14 nM

Question: For `O=C(O)c1cc(F)c(-c2cccc3c2OCN(C(=O)c2c(Cl)cc(N4CC5(CCO5)C4)cc2Cl)C3)cc1N1C2CCC1COC2` [Compound 1-2, 4-[3-[2,6-Dichloro-4-(1-oxa-6-azaspiro[3.3]heptan-6-yl)benzoyl]-2,4-dihydro-1,3-benzoxazin-8-yl]-5-fluoro-2-(3-oxa-8-azabicyclo[3.2.1]octan-8-yl)benzoic acid], which EC50 is on record?
Answer: 8.6 nM

Question: For `CN1C[C@@H]2C[C@H]1CN2c1cc(Cl)c(C(=O)N2COc3c(cccc3-c3cc(N4C5CCC4COC5)c(C(=O)O)cc3F)C2)c(Cl)c1` [Compound 10-10, 4-[3-[2,6-Dichloro-4-[(1S,4S)-5-methyl-2,5-diazabicyclo[2.2.1]heptan-2-yl]benzoyl]-2,4-dihydro-1,3-benzoxazin-8-yl]-5-fluoro-2-(3-oxa-8-azabicyclo[3.2.1]octan-8-yl)benzoic acid], which EC50 is on record?
Answer: 25 nM

Question: Which EC50 does the source give for `O=C(O)c1cc(F)c(-c2cccc3c2OCN(C(=O)c2c(Cl)cc(OCC4CCOCC4)cc2Cl)C3)cc1N1C2CCC1COC2` [Compound 4-41, 4-[3-[2,6-Dichloro-4-(oxan-4-ylmethoxy)benzoyl]-2,4-dihydro-1,3-benzoxazin-8-yl]-5-fluoro-2-(3-oxa-8-azabicyclo[3.2.1]octan-8-yl)benzoic acid] here?
Answer: 4.7 nM

Question: For `CN1CCN(c2cc(Cl)c(C(=O)N3COc4c(cccc4-c4cc(N5CCOCC5)c(C(=O)O)cc4F)C3)c(Cl)c2)CC12CC2` [Compound 4-31, 4-[3-[2,6-Dichloro-4-(4-methyl-4,7-diazaspiro[2.5]octan-7-yl)benzoyl]-2,4-dihydro-1,3-benzoxazin-8-yl]-5-fluoro-2-morpholin-4-ylbenzoic acid], which EC50 is on record?
Answer: 1.2 nM

Question: `Cn1nnc2c(-c3cc(Cl)c(C(=O)N4COc5c(cccc5-c5cc(N6C7CCC6COC7)c(C(=O)O)cc5F)C4)c(Cl)c3)cncc21` [Compound 3-11, 4-[3-[2,6-Dichloro-4-(3-methyltriazolo[4,5-c]pyridin-7-yl)benzoyl]-2,4-dihydro-1,3-benzoxazin-8-yl]-5-fluoro-2-(3-oxa-8-azabicyclo[3.2.1]octan-8-yl)benzoic acid] was tested. Which EC50 did it give?
Answer: 5.7 nM

Question: For `Cn1nnc2c(-c3cc(Cl)c(C(=O)N4COc5c(cccc5-c5cc(N6C7CCC6COC7)c(C(=O)O)cc5F)C4)c(Cl)c3)ccnc21` [Compound 3-19, 4-[3-[2,6-Dichloro-4-(3-methyltriazolo[4,5-b]pyridin-7-yl)benzoyl]-2,4-dihydro-1,3-benzoxazin-8-yl]-5-fluoro-2-(3-oxa-8-azabicyclo[3.2.1]octan-8-yl)benzoic acid], which EC50 is on record?
Answer: 8 nM

Question: How did the EC50 turn out when `COC1CN(C2CN(c3cc(Cl)c(C(=O)N4COc5c(cccc5-c5cc(N6C7CCC6COC7)c(C(=O)O)cc5F)C4)c(Cl)c3)C2)C1` [Compound 5-13, 4-[3-[2,6-Dichloro-4-[3-(3-methoxyazetidin-1-yl)azetidin-1-yl]benzoyl]-2,4-dihydro-1,3-benzoxazin-8-yl]-5-fluoro-2-(3-oxa-8-azabicyclo[3.2.1]octan-8-yl)benzoic acid] was run?
Answer: 2.7 nM

Question: For `O=C(O)c1cc(F)c(-c2cccc3c2OCN(C(=O)c2c(Cl)cc(N4CC5(CC(OC6COC6)C5)C4)cc2Cl)C3)cc1N1C2CCC1COC2` [Compound 6-10, 4-[3-[2,6-Dichloro-4-[6-(oxetan-3-yloxy)-2-azaspiro[3.3]heptan-2-yl]benzoyl]-2,4-dihydro-1,3-benzoxazin-8-yl]-5-fluoro-2-(3-oxa-8-azabicyclo[3.2.1]octan-8-yl)benzoic acid], which EC50 is on record?
Answer: 3.7 nM

Question: With `Cn1cc(-c2cc(Cl)c(C(=O)N3Cc4cccc(-c5ccc(C(=O)O)c(N6CCOCC6)c5)c4CO3)c(Cl)c2)cn1` [Compound 14-8, 4-[3-[2,6-Dichloro-4-(1-methylpyrazol-4-yl)benzoyl]-1,4-dihydro-2,3-benzoxazin-8-yl]-2-morpholin-4-ylbenzoic acid] as the molecule, how does the EC50 read?
Answer: 70 nM

Question: Which EC50 does the source give for `Cn1cc(-c2cc(Cl)c(C(=O)N3Cc4cccc(-c5ccc(C(=O)O)c(N6CCOCC6)c5)c4NC3=O)c(Cl)c2)cn1` [Compound 14-6, 4-[3-[2,6-Dichloro-4-(1-methylpyrazol-4-yl)benzoyl]-2-oxo-1,4-dihydroquinazolin-8-yl]-2-morpholin-4-ylbenzoic acid] here?
Answer: 20 nM

Question: For `COc1cc(C(=O)N2COc3c(cccc3-c3cc(N4CCOCC4)c(C(=O)O)cc3F)C2)c(Cl)cc1-c1ccncc1` [Compound 2-5, 4-[3-(2-Chloro-5-methoxy-4-pyridin-4-ylbenzoyl)-2,4-dihydro-1,3-benzoxazin-8-yl]-5-fluoro-2-morpholin-4-ylbenzoic acid], which EC50 is on record?
Answer: 2.4 nM

Question: For `CN(C)CCOc1cc(Cl)c(C(=O)N2COc3c(cccc3-c3ccc(C(=O)O)c(N4CCOCC4)c3)C2)c(Cl)c1` [Compound 4-44, 4-[3-[2,6-Dichloro-4-[2-(dimethylamino)ethoxy]benzoyl]-2,4-dihydro-1,3-benzoxazin-8-yl]-2-morpholin-4-ylbenzoic acid], which EC50 is on record?
Answer: 16 nM

Question: Which EC50 does the source give for `COc1cc(Cl)c(C(=O)N2COc3c(cccc3-c3cc(N4CCOCC4)c(C(=O)O)cc3F)C2)cc1OC` [Compound 13-17, 4-[3-(2-Chloro-4,5-dimethoxybenzoyl)-2,4-dihydro-1,3-benzoxazin-8-yl]-5-fluoro-2-morpholin-4-ylbenzoic acid] here?
Answer: 5.9 nM

Question: For `Cc1nc2c(-c3cc(Cl)c(C(=O)N4COc5c(cccc5-c5cc(N6C7CCC6COC7)c(C(=O)O)cc5F)C4)c(Cl)c3)cncc2n1C` [Compound 3-8, 4-[3-[2,6-Dichloro-4-(2,3-dimethylimidazo[4,5-c]pyridin-7-yl)benzoyl]-2,4-dihydro-1,3-benzoxazin-8-yl]-5-fluoro-2-(3-oxa-8-azabicyclo[3.2.1]octan-8-yl)benzoic acid], which EC50 is on record?
Answer: 17 nM

Question: For `CO[C@H]1COC2(C1)CN(c1cc(Cl)c(C(=O)N3COc4c(cccc4-c4cc(N5C6CCC5COC6)c(C(=O)O)cc4F)C3)c(Cl)c1)C2` [Compound 1-23, 4-[3-[2,6-Dichloro-4-[(7R)-7-methoxy-5-oxa-2-azaspiro[3.4]octan-2-yl]benzoyl]-2,4-dihydro-1,3-benzoxazin-8-yl]-5-fluoro-2-(3-oxa-8-azabicyclo[3.2.1]octan-8-yl)benzoic acid], which EC50 is on record?
Answer: 1.9 nM

Question: How did the EC50 turn out when `CC1(C#N)CN(c2cc(Cl)c(C(=O)N3COc4c(cccc4-c4cc(N5C6CCC5COC6)c(C(=O)O)cc4F)C3)c(Cl)c2)C1` [Compound 1-15, 4-[3-[2,6-Dichloro-4-(3-cyano-3-methylazetidin-1-yl)benzoyl]-2,4-dihydro-1,3-benzoxazin-8-yl]-5-fluoro-2-(3-oxa-8-azabicyclo[3.2.1]octan-8-yl)benzoic acid] was run?
Answer: 2.7 nM

Question: With `Cn1cc(-c2cc(Cl)c(C(=O)N3COc4c(cccc4-c4c(F)cc(C(=O)O)c(N5CCOCC5)c4F)C3)c(Cl)c2)cn1` [Compound 13-4, 4-[3-[2,6-Dichloro-4-(1-methylpyrazol-4-yl)benzoyl]-2,4-dihydro-1,3-benzoxazin-8-yl]-3,5-difluoro-2-morpholin-4-ylbenzoic acid] as the molecule, how does the EC50 read?
Answer: 24 nM

Question: Which EC50 does the source give for `COCCN1CCN(c2cc(Cl)c(C(=O)N3COc4c(cccc4-c4cc(N5C6CCC5COC6)c(C(=O)O)cc4F)C3)c(Cl)c2)CC1(C)C` [Compound 8-3, 4-[3-[2,6-Dichloro-4-[4-(2-methoxyethyl)-3,3-dimethylpiperazin-1-yl]benzoyl]-2,4-dihydro-1,3-benzoxazin-8-yl]-5-fluoro-2-(3-oxa-8-azabicyclo[3.2.1]octan-8-yl)benzoic acid] here?
Answer: 2.6 nM

Question: How did the EC50 turn out when `COC1CN(C2(C)CN(c3cc(Cl)c(C(=O)N4COc5c(cccc5-c5cc(N6C7CCC6COC7)c(C(=O)O)cc5F)C4)c(Cl)c3)C2)C1` [Compound 11-5, 4-[3-[2,6-Dichloro-4-[3-(3-methoxyazetidin-1-yl)-3-methylazetidin-1-yl]benzoyl]-2,4-dihydro-1,3-benzoxazin-8-yl]-5-fluoro-2-(3-oxa-8-azabicyclo[3.2.1]octan-8-yl)benzoic acid] was run?
Answer: 2 nM

Question: Which EC50 does the source give for `Cn1cc(-c2cc(Cl)c(C(=O)N3CCc4c(cccc4-c4ccc(C(=O)O)c(N5CCOCC5)c4)C3)c(Cl)c2)cn1` [Compound 17-18, 4-[2-[2,6-Dichloro-4-(1-methylpyrazol-4-yl)benzoyl]-3,4-dihydro-1H-isoquinolin-5-yl]-2-morpholin-4-ylbenzoic acid] here?
Answer: 97 nM

Question: How did the EC50 turn out when `Cn1ccc2c(C(=O)N3COc4c(cccc4-c4cc(N5CCOCC5)c(C(=O)O)cc4F)C3)c(Cl)cnc21` [Compound 13-13, 4-[3-(5-Chloro-1-methylpyrrolo[2,3-b]pyridine-4-carbonyl)-2,4-dihydro-1,3-benzoxazin-8-yl]-5-fluoro-2-morpholin-4-ylbenzoic acid] was run?
Answer: 7.1 nM
